# Assay results reported in US11034650B2, “Compounds useful for treating a Mannheimia haemolytica or Histophilus somni infection” (Intervet Inc., priority 2016, dated 2021).
# Experiments:
# Format in all cases: cell-based
# [1] = system: Mannheimia haemolytica MH 6357 (M7/2, reference strain, cattle infection strain); assay: MIC, broth-microdilution (CLSI VET01-A4), strain MH 6357; settings: Mannheimia haemolytica strain MH 6357, broth-microdilution; unit assumed
# Method in brief: (§1)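 Using trays holding a doubling concentration series, the MIC is read as the minimal concentration with no eye-detectable growth.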
# [2] = system: Mannheimia haemolytica MH 6374 (ATCC 33396, reference strain); assay: MIC, broth-microdilution (CLSI VET01-A4), strain MH 6374; settings: Mannheimia haemolytica strain MH 6374, broth-microdilution; unit assumed
# Method in brief: as §1
# [3] = system: Mannheimia haemolytica MH 10720 (154, BRD field isolate); assay: MIC, broth-microdilution (CLSI VET01-A4), strain MH 10720; settings: Mannheimia haemolytica strain MH 10720, broth-microdilution; unit assumed
# Method in brief: as §1
# [4] = system: Mannheimia haemolytica MH 12587 (1071, BRD field isolate, macrolide-resistance: erm+, E+); assay: MIC, broth-microdilution (CLSI VET01-A4), strain MH 12587; settings: Mannheimia haemolytica strain MH 12587, broth-microdilution; unit assumed
# Method in brief: as §1
# [5] = system: Mannheimia haemolytica MH 13065 (XB0446-6003.9, BRD field isolate); assay: MIC, broth-microdilution (CLSI VET01-A4), strain MH 13065; settings: Mannheimia haemolytica strain MH 13065, broth-microdilution; unit assumed
# Method in brief: as §1
# [6] = system: Mannheimia haemolytica MH 13093 (XB0472-6014.1, BRD field isolate); assay: MIC, broth-microdilution (CLSI VET01-A4), strain MH 13093; settings: Mannheimia haemolytica strain MH 13093, broth-microdilution; unit assumed
# Method in brief: as §1
# [7] = system: Pasteurella multocida PM 6267 (P 2225 (L386), reference strain, mouse infection strain); assay: MIC, broth-microdilution (CLSI VET01-A4), strain PM 6267; settings: Pasteurella multocida strain PM 6267, broth-microdilution; unit assumed
# Method in brief: as §1
# [8] = system: Pasteurella multocida PM 6391 (ATCC 43137, reference strain); assay: MIC, broth-microdilution (CLSI VET01-A4), strain PM 6391; settings: Pasteurella multocida strain PM 6391, broth-microdilution; unit assumed
# Method in brief: as §1
# [9] = system: Pasteurella multocida PM 10775 (080130003051, BRD field isolate); assay: MIC, broth-microdilution (CLSI VET01-A4), strain PM 10775; settings: Pasteurella multocida strain PM 10775, broth-microdilution; unit assumed
# Method in brief: as §1
# [10] = system: Pasteurella multocida PM 12080 (IV102277-0093, BRD field isolate); assay: MIC, broth-microdilution (CLSI VET01-A4), strain PM 12080; settings: Pasteurella multocida strain PM 12080, broth-microdilution; unit assumed
# Method in brief: as §1
MIC PM 6267 [7] [µg/mL],MIC PM 6391 [8] [µg/mL],MIC PM 10775 [9] [µg/mL],MIC PM 12080 [10] [µg/mL],SMILES,MIC MH 6357 [1] [µg/mL],MIC MH 6374 [2] [µg/mL],MIC MH 10720 [3] [µg/mL],MIC MH 12587 [4] [µg/mL],MIC MH 13065 [5] [µg/mL],MIC MH 13093 [6] [µg/mL]
3.1,6.3,0.4,1.6,CSC(C)(C)[C@H](NC(=O)c1ccc(C#Cc2ccc(CNCc3ccccn3)nc2)cc1)C(=O)NO [Compound 343],3.1,3.1,0.4,6.3,3.1,6.3
1.6,1.6,0.2,0.8,COc1ccc(CNCc2ccc(C#Cc3ccc(C(=O)N[C@H](C(=O)NO)C(C)(C)SC)cc3)cn2)cc1 [Compound 340],0.8,1.6,0.4,3.1,1.6,1.6
0.4,0.4,≤ 0.1,0.2,C=CCNCc1ccc(C#Cc2ccc(C(=O)N[C@H](C(=O)NO)C(C)(C)O)cc2)cn1 [Compound 361],3.1,0.8,0.4,3.1,1.6,3.1
100,0.8,3.1,0.8,CC(=O)C(NC(=O)c1ccc(C#Cc2ccc(CNC3CCCC3)cc2)cc1)C(=O)NO (centres unmarked) [Compound 405],25,50,6.3,12.5,0.8,25
12.5,≤ 0.1,0.8,0.4,CC(=O)[C@H](NC(=O)c1ccc(C#Cc2ccc(CNC3CC3)cc2)cc1)C(=O)NO [Compound 396],1.6,1.6,1.6,0.4,3.1,3.1
1.6,1.6,0.4,0.8,CC(C)([C@H](NC(=O)c1ccc(C#Cc2ccc(CNCC#N)nc2)cc1)C(=O)NO)S(C)(=O)=O [Compound 372],6.3,12.5,3.1,25,12.5,25
3.1,≤ 0.1,0.8,0.4,CC(=O)C(NC(=O)c1ccc(C#Cc2ccc(CNCc3ccccc3)cc2)cc1)C(=O)NO (centres unmarked) [Compound 400],0.8,1.6,1.6,0.2,1.6,1.6
3.1,12.5,≤ 0.1,6.3,CCNCc1ccc(C#Cc2ccc(C(=O)N[C@@H](CO)C(=O)NO)cc2)cc1 [Compound 151],6.3,25,3.1,25,12.5,25
3.1,1.6,0.2,0.8,COCCNCc1ccc(C#Cc2ccc(C(=O)N[C@H](C(=O)NO)C(C)(C)SC)cc2)cn1 [Compound 337],3.1,3.1,0.8,6.3,6.3,3.1
6.3,3.1,0.2,1.6,CC(C)([C@H](NC(=O)c1ccc(C#Cc2ccc(CNCc3ncccn3)nc2)cc1)C(=O)NO)S(C)(=O)=O [Compound 356],6.3,6.3,3.1,12.5,6.3,12.5
0.8,0.4,≤ 0.1,≤ 0.1,COc1ccc(CNCc2ccc(C#Cc3ccc(C(=O)N[C@H](C(=O)NO)C(C)(C)O)cc3)s2)cc1 [Compound 295],≤ 0.1,0.4,≤ 0.1,0.8,0.2,0.4
